One test has as its system E. coli ATCC 25922. It counts as cell-based, Escherichia coli. The note with it: ATCC 25922. The method, boiled down:
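Peptides, serially diluted two-fold, were incubated overnight at 37 °C with E. coli ATCC 25922 from log-phase cultures adjusted to OD600 0.001. Turbidity at 630 nm served as the read-out in this broth microdilution format.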

The test system of another test is E. coli ampC E416-7. The test is classed as cell-based, Escherichia coli. The note with it: Table 7. The text has this:
The bacterial strains used include the Gram-positive strains Staphylococcus aureus USA300 LAC, S. epidermidis 1457, and Bacillus subtilis 168, as well as the Gram-negative isolates Escherichia coli K12 and Acinetobacter baumannii B2367-12. Additional, drug resistance strains include Gram-positive Enterococcus faecium V286-17 (VRE) and S. aureus M838-17 (MRSA) and Gram-negative E. coli E423-17, E. coli E416-17 (ampC), and P. aeruginosa E411-17. Bacteria were cultivated in tryptic soy broth (TSB) (BD Bioscience, MD).
The antibacterial activity of peptides was evaluated using a standard broth microdilution protocol with minor modifications as described (Mishra, et al. (2012) J. Am. Chem. Soc., 134:12426-12429). In brief, logarithmic phase bacterial cultures (i.e., optical density at 600 nm≈0.5) were diluted to OD600 0.001 and partitioned into a 96-well polystyrene microplate at 90 μL per well. After treatment with 10 μL of peptide solutions two fold diluted to various concentrations, microplates were incubated at 37° C. overnight and read on a ChroMate® 4300 Microplate Reader at 630 nm (GMI, Ramsey, MN). […] To study the influence of medium conditions on the antimicrobial activity of peptides against S. aureus USA300, up to 200 mM sodium chloride (NaCl), 2 mM of calcium chloride, 5-10% of human serum, mouse plasma, fluid, or supernatants of tissue homogenates were included into the assays.

The next test concerns K. pneumoniae ATCC 13883. The test is classed as cell-based, Klebsiella pneumoniae. The note with it: ATCC 13883. In a few lines:
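Broth microdilution in tryptic soy broth: log-phase cultures (OD600 ≈0.5) diluted to OD600 0.001, given two-fold peptide dilutions, incubated overnight at 37° C. Growth read at 630 nm.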

Peptide text beside a SMILES is read from it.

Turning to `CC(C)C[C@H](NC(=O)[C@H](CC(C)C)NC(=O)[C@H](CCCCN)NC(=O)[C@H](CC(C)C)NC(=O)CNC(=O)[C@H](CC(C)C)NC(=O)[C@H](CO)NC(=O)[C@H](CC(C)C)NC(=O)[C@H](CC(C)C)NC(=O)[C@H](CC(C)C)NC(=O)[C@H](CCCCN)NC(=O)[C@H](CC(C)C)NC(=O)CN)C(N)=O` [DFT561, GLKLLLSLGLKLL] (H-GLKLLLSLGLKLL-NH2; N-terminus and C-terminus assumed), the “MIC EC (E. coli ATCC 25922)” value against E. coli ATCC 25922 was above 25 µM. Further, the “MIC E. coli ampC E416-7” value against E. coli ampC E416-7 was above 50 µM.

In the case of `CC(C)C[C@H](NC(=O)[C@H](Cc1c[nH]c2ccccc12)NC(=O)[C@H](Cc1c[nH]c2ccccc12)NC(=O)[C@@H](N)Cc1c[nH]c2ccccc12)C(=O)N[C@@H](CCCNC(=N)N)C(=O)N[C@@H](CCCNC(=N)N)C(=O)N[C@@H](CCCNC(=N)N)C(=O)N[C@@H](Cc1c[nH]c2ccccc12)C(N)=O` [Horine, WWWLRRRW] (H-WWWLRRRW-NH2; N-terminus and C-terminus assumed), the “MIC K. pneumonia ATCC 13883” value against K. pneumoniae ATCC 13883 was above 25 µM.
